Assay results published in BindingDB's records for doi:10.1016/j.bmc.2020.115681 (Takeda Pharmaceuticals International, 2020).

Experiments:
[1] = target: T1, Ubiquitin-like modifier-activating enzyme ATG7 (Homo sapiens, UniProt O95352); test: Inhibition of ATG7 in human 293HEK cells assessed as inhibition of ATG7:ATG8 thioester formation after 4 hrs by Western blot analysis
T1 sequence (O95352 whole entry): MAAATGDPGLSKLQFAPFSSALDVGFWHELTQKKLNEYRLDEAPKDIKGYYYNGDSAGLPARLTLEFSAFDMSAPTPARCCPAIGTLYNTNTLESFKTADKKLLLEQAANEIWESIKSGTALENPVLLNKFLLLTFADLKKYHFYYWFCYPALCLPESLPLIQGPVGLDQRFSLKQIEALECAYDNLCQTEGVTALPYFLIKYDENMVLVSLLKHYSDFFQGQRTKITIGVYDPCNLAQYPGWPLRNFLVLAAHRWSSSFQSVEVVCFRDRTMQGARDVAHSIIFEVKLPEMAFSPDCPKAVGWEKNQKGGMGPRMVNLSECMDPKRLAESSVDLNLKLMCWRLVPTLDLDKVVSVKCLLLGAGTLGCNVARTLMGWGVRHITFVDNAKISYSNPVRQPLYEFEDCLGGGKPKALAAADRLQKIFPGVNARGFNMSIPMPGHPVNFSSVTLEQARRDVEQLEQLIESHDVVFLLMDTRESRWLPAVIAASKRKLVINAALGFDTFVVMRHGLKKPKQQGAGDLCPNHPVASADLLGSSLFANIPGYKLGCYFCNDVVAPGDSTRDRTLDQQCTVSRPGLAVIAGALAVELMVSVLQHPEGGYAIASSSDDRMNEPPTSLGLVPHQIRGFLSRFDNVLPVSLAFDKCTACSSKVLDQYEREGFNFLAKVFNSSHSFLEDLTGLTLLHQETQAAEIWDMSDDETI

[2] = target: T1, Ubiquitin-like modifier-activating enzyme ATG7; test: Inhibition of recombinant His-tagged human ATG7 incubated for 105 mins in presence of GST-tagged ATG3 and Flag-tagged Gabarap and measured after 2 hrs by FRET assay relative to control

Compound | IC50 [1] [nM] | IC50 [2] [nM]
CSc1nn([C@H]2C[C@H](O)[C@H](COS(N)(=O)=O)O2)c2ncnc(N)c12 [{(2S,3S,5R)-5-[4-amino-3-(methylsulfanyl)-1H-pyrazolo[3,4-d]pyrimidin-1-yl]-3-hydroxytetrahydrofuran-2-yl}methyl sulfamate] | 295 | 
Cc1cccc(Sc2nn([C@@H]3O[C@H](COS(N)(=O)=O)[C@@H](O)[C@@H]3F)c3ncnc(N)c23)c1 [[(2R,3R,4S,5R)-5-{4-amino-3-[(3-methylphenyl)sulfanyl]-1H-pyrazolo[3,4-d]pyrimidin-1-yl}-4-fluoro-3-hydroxytetrahydrofuran-2-yl]methyl sulfamate] |  | 35
